Read-outs that look alike come from different tables or passages of the source.
Key:
CCK-B receptor = biological target: T1, CCK-B receptor (Homo sapiens, UniProt P32239); assay: CCK-B receptor antagonism (statement)
T1 sequence (P32239 1-447): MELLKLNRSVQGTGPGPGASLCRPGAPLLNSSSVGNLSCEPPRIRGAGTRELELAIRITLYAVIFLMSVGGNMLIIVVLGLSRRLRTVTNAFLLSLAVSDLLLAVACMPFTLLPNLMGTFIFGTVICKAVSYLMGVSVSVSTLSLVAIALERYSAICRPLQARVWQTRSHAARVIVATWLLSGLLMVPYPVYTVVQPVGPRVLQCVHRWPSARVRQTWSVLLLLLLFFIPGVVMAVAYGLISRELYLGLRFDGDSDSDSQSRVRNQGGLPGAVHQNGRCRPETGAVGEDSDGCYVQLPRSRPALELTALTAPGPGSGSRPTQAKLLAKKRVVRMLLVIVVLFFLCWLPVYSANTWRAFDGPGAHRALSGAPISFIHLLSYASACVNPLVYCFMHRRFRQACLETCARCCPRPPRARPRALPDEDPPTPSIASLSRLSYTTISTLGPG

[1] = RPR 102681 plasma concentration by LC/MS/MS; format: in vivo, humans; details: for concentration at 95 min / concentration at 215 min: human, plasma, read-out: mean plasma concentration (3-day average); for concentration at 95 min: 95 minutes post dose; for concentration at 215 min: 215 minutes post dose
Description: […] Pharmacokinetics (peak and trough levels) of RPR 102681 during treatment at a dose of 200 mg (day 13), 400 mg (day 20) and 800 mg (day 27) b.i.d. were determined.
The plasma concentration of RPR 102681 was determined with a validated liquid chromatography assay with mass spectrometric detection (LC/MS/MS) at the Department of Biopharmaceutical Sciences, University of California, San Francisco, Calif.
The sample plasma specimens for determining plasma concentration (354 RPR 102681 plasma specimens and 109 Prolactin plasma specimens) were frozen and packed in dry ice upon receipt by the Analytical Division/Drug Studies Unit at South San Francisco, Calif. These samples were kept frozen at approximately −20° C. until analyzed.
Human plasma samples (0.100 mL) were analyzed for RPR 102681 with an LC/MS/MS procedure utilizing a PE Sciex III system equipped with a BDS Hypersil C18 column (4.6×15 mm, 5 μm particle size), a mobile system consisting of acetonitrile:water:trifluoroacetic acid (70:30:0.06) (v/v) with 0.0006% (w/v) ammonium phosphate dibasic; mass spectrometric detection was accomplished with a sample inlet, heated nebulizer, positive ionization by Atmospheric Pressure Chemical Ionization (APCI) and mass scanning by Multiple Reaction Monitoring (MRM) analysis. Sample preparation consisted of precipitation of 0.100 mL of plasma with acetonitrile containing the internal standard (prednisolone acetate) prior to separation by LC/MS/MS. The linear range of the assay was 1.0 to 160 ng/mL, with a lower limit of quantitation of 1.0 ng/mL.
Standard curve and quality control (QC) samples were generated by spiking interference free human plasma samples with known amounts of RPR 102681 and internal standard (IS). These standard curve, assay, and QC samples were processed, then 40 μl aliquots were injected into the LC/MS/MS system for chromatographic separation and subsequent mass spectrometric detection. The peak area ratios of RPR 102681 to IS were calculated for each sample from the measured peak areas obtained by LC/MS/MS. Finally, spiked concentrations and RPR 102681 to IS peak area ratios of the standard curve samples were fit by 1/x weighted least squares linear regression to the equation for the best straight line (y=mx+b, where y=peak area ratio and x=RPR 102681 concentration), and drug concentration in assay sample were calculated by the equation from the RPR 102681 to IS peak area ratios obtained by LC/MS/MS.

serum prolactin = assay: Serum prolactin radioimmunoassay; format: in vivo, humans
Description: Blood for prolactin level determinations were collected on day 0 at 6:00 A.M. before breakfast (7:00 A.M.) and also three times a day on days 15, 22 and 29 with first blood draw performed at 6:00 A.M. before the morning dose of RPR 102681 (6:05 A.M.) and the other two at 30 minutes after each i.v. infusion. Prolactin levels on days 15, 22, and 29 were compared between RPR 102681 and placebo cohorts to determine the extent to which prolactin levels are modified by the administration of RPR 102681 using repeated measures ANOVA. Changes in prolactin level induced by 40 mg cocaine infusion along with RPR 102681 (days 15, 22 and 29) were compared for each subject by RPR 102681 dose level using repeated measures ANOVA.
Prolactin concentrations were determined using a commercially available radioimmunoassay (Coat-A-Count® Prolactin IRMA, Diagnostic Products Corporation, Los Angeles, Calif.). Calibrator and QCs (CONE, lots #019 and 020) were also supplied by the manufacturer. Fifty microliters of calibrators, QCs and study samples were added to prolactin polyclonal antibody-coated tubes. This was followed by 200 μL of ^125I-labeled prolactin monoclonal antibodies, followed by shaking for 2 hours. The tubes were decanted and drained; 2 mLs of buffered wash solution was added for 1-2 minutes; the tubes were again decanted and drained; this was followed by a second wash step. After thorough draining, the radioactivity in the tubes was determined from 1 minute counts using a Packard Cobra II gamma counter (Downers Grove, Ill.). In theory, the ^125I-labeled prolactin monoclonal antibodies bind only to prolactin bound to the antibody coated onto the tubes. The radioactivity retained in the tube increases as does the amount of prolactin in the samples. The software for the gamma counter generates a standard curve based on the log of the concentration and the log of the B/Bo for the calibrators. This curve is used to back-calculate the concentration of prolactin in the samples. […]

[2] = 12 healthy adult human subjects; most events, except for one subject; cited from earlier work

CC(C(=O)O)c1cccc(NC(=O)NCC(=O)N2C(C(=O)OC(C)(C)C)CSC2c2ccccc2F)c1 [RPR 102681, (2S)-2-{3-[3-({[(2R,4R)-4-tert-Butoxycarbonyl-2-(2-fluorophenyl)]-3-thiazolidinyl}carbonylmethyl)ureido]phenyl}propionic acid]
CCK-B receptor antagonism (CCK-B receptor): potent CCK-B receptor antagonist | mean plasma concentration at 2-3.5 hours relative to 8-11 hours ([1]; 200 mg dose): approximately 19 times | mean plasma concentration at 2-3.5 hours relative to 8-11 hours ([1]; 400 mg dose): ~15 times | dose-proportionality of plasma concentration ([1]; 400 mg to 800 mg dose range, 95 and 215 minutes post-dose): Severe deviation from dose-proportionality | mean plasma concentration at 2-3.5 hours relative to 8-11 hours ([1]; 800 mg dose): ~8 times | least-squares mean of dose-normalized concentration ([1]; 95 minutes post-dose, day 13, 200 mg): 1.26 ng/mL | least-squares mean of dose-normalized concentration ([1]; 95 minutes post-dose, day 14, 200 mg): 1.12 ng/mL | least-squares mean of dose-normalized concentration ([1]; 95 minutes post-dose, day 15, 200 mg): 1.25 ng/mL | least-squares mean of dose-normalized concentration ([1]; 95 minutes post-dose, day 20, 400 mg): 1.36 ng/mL | least-squares mean of dose-normalized concentration ([1]; 95 minutes post-dose, day 21, 400 mg): 0.87 ng/mL | least-squares mean of dose-normalized concentration ([1]; 95 minutes post-dose, day 22, 400 mg): 1.05 ng/mL | least-squares mean of dose-normalized concentration ([1]; 95 minutes post-dose, day 27, 800 m): 0.78 ng/mL | least-squares mean of dose-normalized concentration ([1]; 95 minutes post-dose, day 28, 800 m): 0.58 ng/mL | least-squares mean of dose-normalized concentration ([1]; 95 minutes post-dose, day 29, 800 m): 0.43 ng/mL | least-squares mean of dose-normalized concentration ([1]; 215 minutes after dose, day 13, 200 mg): 0.70 ng/mL | least-squares mean of dose-normalized concentration ([1]; 215 minutes after dose, day 14, 200 mg): 0.78 ng/mL | least-squares mean of dose-normalized concentration ([1]; 215 minutes after dose, day 15, 200 mg): 0.62 ng/mL | least-squares mean of dose-normalized concentration ([1]; 215 minutes after dose, day 20, 400 mg): 0.58 ng/mL | least-squares mean of dose-normalized concentration ([1]; 215 minutes after dose, day 21, 400 mg): 0.54 ng/mL | least-squares mean of dose-normalized concentration ([1]; 215 minutes after dose, day 22, 400 mg): 0.66 ng/mL | least-squares mean of dose-normalized concentration ([1]; 215 minutes after dose, day 27, 800 mg): 0.42 ng/mL | least-squares mean of dose-normalized concentration ([1]; 215 minutes after dose, day 28, 800 mg): 0.39 ng/mL | least-squares mean of dose-normalized concentration ([1]; 215 minutes after dose, day 29, 800 mg): 0.33 ng/mL | concentration at 95 min ([1]; 200 mg b.i.d. oral): 242 ng/mL | concentration at 95 min ([1]; 400 mg b.i.d. oral): 422 ng/mL | concentration at 95 min ([1]; 800 mg b.i.d. oral): 441 ng/mL | concentration at 215 min ([1]; 200 mg b.i.d. oral): 140 ng/mL | concentration at 215 min ([1]; 400 mg b.i.d. oral): 255 ng/mL | concentration at 215 min ([1]; 800 mg b.i.d. oral): 285 ng/mL | post-cocaine prolactin value vs post-saline value (serum prolactin; RPR 102681 group, day 29): significantly lower | serum prolactin levels, RPR 102681 vs placebo subjects (serum prolactin; day 0 and pre-infusion days 15, 22, 29): no significant differences | serum prolactin response to cocaine or saline infusion, RPR 102681 vs placebo (serum prolactin; infusion days 15, 22, 29): no significant difference | severity of adverse events and treatment-associated adverse events [2]: mild or moderate

— patent US8592466B2, “Methods for treating conditions caused by higher-than-normal dopaminergic activity in basal ganglia” (Neuropill, Inc., priority 2008, dated 2013)
